Experimental data as given in PMC8343220, “The selectivity of α‐adrenoceptor agonists for the human α1A, α1B, and α1D‐adrenoceptors” (Pharmacology Research & Perspectives, 2021).
Entries after “also recorded” stand apart in the source; their conditions may differ. Read-outs that look alike come from different tables or passages of the source. Marks after values point to notes of the source that are not given here.

How the values were obtained:
[1] = test system: parental CHO cell line without any transfected receptors; assay: ^3H‐cAMP accumulation, parent CHO cells without transfected receptors; type: cell-based, Chinese hamster
human α1A‐adrenoceptor [2] = biological target: T1, human α1A‐adrenoceptor (Homo sapiens, UniProt P35348); assay: ERK1/2‐phosphorylation (Surefire Alphascreen), CHO‐α1A cells; type: cell-based
T1 construct: expressed in transfected cells; host or cells: CHO-K1
T1 sequence (P35348 1-466): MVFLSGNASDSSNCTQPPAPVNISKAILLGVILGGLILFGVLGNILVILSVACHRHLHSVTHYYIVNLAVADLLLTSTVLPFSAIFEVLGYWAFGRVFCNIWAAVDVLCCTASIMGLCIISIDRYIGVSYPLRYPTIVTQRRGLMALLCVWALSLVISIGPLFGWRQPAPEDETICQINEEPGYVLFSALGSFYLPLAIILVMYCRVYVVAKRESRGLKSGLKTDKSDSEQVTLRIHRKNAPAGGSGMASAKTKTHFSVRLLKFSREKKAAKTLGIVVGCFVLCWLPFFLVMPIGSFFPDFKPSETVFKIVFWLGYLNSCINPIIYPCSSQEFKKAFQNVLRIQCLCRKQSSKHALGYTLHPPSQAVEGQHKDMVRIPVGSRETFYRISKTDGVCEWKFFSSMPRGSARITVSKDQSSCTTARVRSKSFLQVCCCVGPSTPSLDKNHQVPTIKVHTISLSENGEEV

human α1B‐adrenoceptor [3] = biological target: T2, human α1B‐adrenoceptor (Homo sapiens, UniProt P35368); assay: ERK1/2‐phosphorylation (Surefire Alphascreen), CHO‐α1B cells; type: cell-based
T2 construct: expressed in transfected cells; host or cells: CHO-K1
T2 sequence (P35368 1-520): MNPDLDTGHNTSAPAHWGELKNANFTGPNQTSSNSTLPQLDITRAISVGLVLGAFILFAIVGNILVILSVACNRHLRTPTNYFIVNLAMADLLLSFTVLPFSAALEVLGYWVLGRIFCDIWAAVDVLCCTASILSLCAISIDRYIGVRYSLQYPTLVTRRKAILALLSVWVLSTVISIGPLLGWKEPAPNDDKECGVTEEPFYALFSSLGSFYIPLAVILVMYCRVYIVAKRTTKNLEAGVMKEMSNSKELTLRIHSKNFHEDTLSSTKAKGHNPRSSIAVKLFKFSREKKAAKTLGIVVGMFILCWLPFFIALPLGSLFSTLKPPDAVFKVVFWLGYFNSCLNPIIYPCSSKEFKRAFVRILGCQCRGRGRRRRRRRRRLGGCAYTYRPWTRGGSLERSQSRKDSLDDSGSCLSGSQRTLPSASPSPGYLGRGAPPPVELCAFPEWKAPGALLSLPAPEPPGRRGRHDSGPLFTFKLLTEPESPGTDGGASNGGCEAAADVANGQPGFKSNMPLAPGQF

human α1B‐adrenoceptor [4] = biological target: T2, human α1B‐adrenoceptor; assay: ^3H‐cAMP accumulation, CHO‐α1B cells; type: cell-based; conditions: CHO‐α1B cells
human α1A‐adrenoceptor [5] = biological target: T1, human α1A‐adrenoceptor; assay: ^3H‐prazosin whole‐cell radioligand binding, CHO‐α1A cells
[6] = biological target: T3, human α1D‐adrenoceptor (full length) (Homo sapiens, UniProt P25100); assay: ^3H‐prazosin whole‐cell radioligand binding, CHO‐α1D cells
T3 construct: human α1D‐adrenoceptor (full length) were used; expressed in transfected cells; host or cells: CHO-K1
T3 sequence (P25100 1-572): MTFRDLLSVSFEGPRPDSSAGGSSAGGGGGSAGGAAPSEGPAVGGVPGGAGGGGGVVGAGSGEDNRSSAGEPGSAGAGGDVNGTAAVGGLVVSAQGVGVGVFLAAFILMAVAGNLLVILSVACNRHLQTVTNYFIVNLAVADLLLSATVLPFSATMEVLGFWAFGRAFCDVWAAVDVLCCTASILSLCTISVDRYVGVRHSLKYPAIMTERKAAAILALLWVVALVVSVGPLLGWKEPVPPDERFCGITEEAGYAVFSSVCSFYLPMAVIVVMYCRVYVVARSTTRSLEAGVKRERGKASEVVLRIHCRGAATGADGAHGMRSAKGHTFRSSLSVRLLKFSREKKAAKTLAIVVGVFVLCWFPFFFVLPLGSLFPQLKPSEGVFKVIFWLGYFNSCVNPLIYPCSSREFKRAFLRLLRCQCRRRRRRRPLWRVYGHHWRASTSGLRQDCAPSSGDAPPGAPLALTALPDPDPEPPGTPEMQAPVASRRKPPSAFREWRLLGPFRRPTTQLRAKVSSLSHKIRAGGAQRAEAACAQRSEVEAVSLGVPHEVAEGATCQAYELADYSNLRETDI

[7] = biological target: T3, human α1D‐adrenoceptor (full length); assay: ERK1/2‐phosphorylation (Surefire Alphascreen), CHO‐α1D cells; type: cell-based
[8] = test system: parental CHO cell line without any transfected receptors; assay: ERK1/2‐phosphorylation, parent CHO cells without transfected receptors; type: cell-based, Chinese hamster
[9] = biological target: T3, human α1D‐adrenoceptor (full length); assay: ^3H‐cAMP accumulation, CHO‐α1D cells; type: cell-based; conditions: cAMP accumulation without forskolin
human α1A‐adrenoceptor [10] = biological target: T1, human α1A‐adrenoceptor; assay: ^3H‐cAMP accumulation, CHO‐α1A cells; type: cell-based
[11] = test system: parental CHO cell line without any transfected receptors; assay: Forskolin‐stimulated cAMP accumulation, parent CHO cells without transfected receptors; type: cell-based, Chinese hamster
human α1A‐adrenoceptor [12] = biological target: T1, human α1A‐adrenoceptor; assay: ^3H‐cAMP accumulation in the presence of 10 μM forskolin, CHO‐α1A cells; type: cell-based
[13] = test system: parental CHO cell line without any transfected receptors; assay: Intracellular calcium mobilization, parent CHO cells without transfected receptors; type: cell-based, Chinese hamster
human α1B‐adrenoceptor [14] = biological target: T2, human α1B‐adrenoceptor; assay: ^3H‐cAMP accumulation in the presence of 10 μM forskolin, CHO‐α1B cells; type: cell-based
human α1B‐adrenoceptor [15] = biological target: T2, human α1B‐adrenoceptor; assay: ^3H‐prazosin whole‐cell radioligand binding, CHO‐α1B cells
[16] = biological target: T3, human α1D‐adrenoceptor (full length); assay: ^3H‐cAMP accumulation in the presence of 10 μM forskolin, CHO‐α1D cells; type: cell-based
[17] = biological target: T3, human α1D‐adrenoceptor (full length); assay: Intracellular free calcium mobilization, CHO‐α1D cells; type: cell-based
human α1B‐adrenoceptor [18] = biological target: T2, human α1B‐adrenoceptor; assay: Intracellular free calcium mobilization, CHO‐α1B cells; type: cell-based
human α1A‐adrenoceptor [19] = biological target: T1, human α1A‐adrenoceptor; assay: Intracellular free calcium mobilization, CHO‐α1A cells; type: cell-based

`C=C[C@@]1(C)CC(=O)[C@]2(O)[C@@]3(C)[C@@H](O)CCC(C)(C)[C@@H]3[C@H](O)[C@H](OC(C)=O)[C@@]2(C)O1` [forskolin] was tested, and the “cAMP accumulation response fold over basal” value ([1]; parent CHO cells, 10μM, n=6) was 39.5 ± 3.2 fold over basal.

In the case of `Cc1cc(C(C)(C)C)cc(C)c1CC1=NCCN1` [Xylometazoline], the EC50 (human α1A‐adrenoceptor [2]) is reported as 3.8 nM, the “ERK1/2‐phosphorylation % PDBu” value (human α1A‐adrenoceptor [2]) is reported as 98.8 ± 5.1% and the “ERK1/2‐phosphorylation potency in CHO‐α1A cells relative to untransfected parent CHO cells” value (human α1A‐adrenoceptor [2]) is reported as greater than 10 fold. The “ERK1/2‐phosphorylation % PDBu” value (human α1B‐adrenoceptor [3]) was 66.2 ± 6.0%, the “cAMP accumulation Log EC50” value (human α1B‐adrenoceptor [4]) was “No response” and the “cAMP accumulation % forskolin” value (human α1B‐adrenoceptor [4]; % forskolin maximum response) was “No response”. For the same compound, the “Affinity selectivity ratio α1A vs α1B” value (human α1A‐adrenoceptor [5]) was 60.3 fold, the “Affinity selectivity ratio α1A vs α1D” value (human α1A‐adrenoceptor [5]) was 51.3 fold and the Kd (human α1A‐adrenoceptor [5]) was 115 nM. The “Affinity selectivity ratio α1B vs α1D” value [6] was 1.2 fold, the Kd [6] was 5890 nM and the Kd ([6]; 3H‐prazosin binding Log KD) was 5890 nM. The “ERK1/2‐phosphorylation % PDBu” value [7] was 70.8 ± 7.8%, the Emax ([8]; Cricetulus griseus, CHO cells without transfected receptors, maximal response as % of PDBu (10μM) response, mean ± s.e.m., read-out: ERK1/2-phosphorylation % PDBu) was 56.2 ± 5.9% and the EC50 ([8]; Cricetulus griseus, CHO cells without transfected receptors, mean ± s.e.m., read-out: ERK1/2-phosphorylation Log EC50 (converted)) was 89.1 nM. The “ERK1/2‐phosphorylation response in parent CHO cells” value ([8]; untransfected cells) was “stimulated ERK1/2‐phosphorylation responses”, the “cAMP Log EC50” value [9] was “No response” and the EC50 (human α1A‐adrenoceptor [10]) was 126 nM. For the same compound, the “cAMP accumulation % forskolin” value (human α1A‐adrenoceptor [10]; CHO‐α1A cells, % of 10 µM forskolin response) was 32.4 ± 5.7%, the “% inhibition of forskolin-stimulated cAMP” value ([11]; CHO cells without transfected receptors, footnote *: % inhibition) was 21.0 ± 2.4%* and the IC50 ([11]; Cricetulus griseus, CHO cells without transfected receptors, footnote *: log IC50, read-out: log IC50, decrease in forskolin-stimulated cAMP accumulation (converted)) was 66.1 nM. For the same compound, the “Effect on cAMP accumulation in the presence of forskolin, parent cells” value ([11]; untransfected cells) was “decrease in cAMP accumulation”, the EC50 (human α1A‐adrenoceptor [12]) was 30.2 nM and the “cAMP accumulation (in presence of forskolin) Fold increase” value (human α1A‐adrenoceptor [12]; CHO‐α1A cells, fold increase of the forskolin response) was 2.00 ± 0.09 fold. For the same compound, the Emax ([13]; Cricetulus griseus, CHO cells without transfected receptors, response at maximum concentration used (c2), as % of ionomycin (10μM) response, mean ± s.e.m., read-out: Intracellular calcium release % ionomycin) was 15.8 ± 2.7%, the IC50 (human α1B‐adrenoceptor [14]) was 9.12 nM and the “% inhibition of forskolin‐stimulated cAMP” value (human α1B‐adrenoceptor [14]; CHO‐α1B cells, footnote c) was 13.5 ± 1.8%a. The “Effect on cAMP accumulation in the presence of forskolin, CHO‐α1B cells” value (human α1B‐adrenoceptor [14]; not α1‐mediated) was “decrease in cAMP accumulation”, the Kd (human α1B‐adrenoceptor [15]) was 6920 nM and the Kd (human α1B‐adrenoceptor [15]; Log KD, ^3H‐prazosin binding) was 6920 nM. The IC50 [16] was 29.5 nM, the “% inhibition of forskolin‐stimulated cAMP” value ([16]; CHO‐α1D cells, decrease in forskolin‐stimulated cAMP accumulation (footnote b)) was “*26.5 ± 1.1%” and the “Effect on cAMP accumulation in the presence of forskolin, CHO‐α1D cells” value ([16]; not α1‐mediated) was “decrease in cAMP accumulation; also recorded: inhibitory cAMP response”. For the same compound, the “Intracellular calcium release % Ionomycin at 100 µM” value [17] was 18.6 ± 2.0%, the “Intracellular calcium release % Ionomycin at 100 µM” value (human α1B‐adrenoceptor [18]) was 13.6 ± 3.3% and the EC50 (human α1A‐adrenoceptor [19]) was 2.51 nM. For the same compound, the “Intracellular calcium release % ionomycin” value (human α1A‐adrenoceptor [19]) was 64.4 ± 2.7% and the “Log efficacy ratio KD /EC50” value (human α1A‐adrenoceptor [19]) was 1.66.

For `CC(N)C(O)c1ccc(O)c(O)c1` (stereo not drawn) [α-methylnorepinephrine], the “ERK1/2-phosphorylation % PDBu” value [8] was “No response”, the “ERK1/2-phosphorylation Log EC50” value [8] was “No response” and the “cAMP accumulation % forskolin” value [1] was “No response”. For the same compound, the “cAMP accumulation (in presence of forskolin) % forskolin-stim cAMP” value [11] was “No response”, the “cAMP accumulation (in presence of forskolin) Log EC50” value [11] was “No response” and the “Intracellular calcium release % ionomycin” value [13] was “No response”.
